Seven compounds from paper PMC6382392 (Journal of medicinal chemistry, 2018) can be followed below.

Assay [1] relates to PC43–10 CHO cells expressing human RFC. In words: Growth inhibition. The settings on record: CHO subline expressing human RFC; drug up to 1000 nM, up to 96 h; mean (SE).
In assay [2] the test system is NCI-IGROV1 EOC xenografts. Nature of the assay: In vivo efficacy trial, subcutaneous NCI-IGROV1 EOC xenografts in SCID mice. The settings on record: for Antitumor activity toward NCI-IGROV1 tumors in vivo (in words): SCID mice, folate-deficient diet.
A further assay has as its target FRβ (Homo sapiens, UniProt P14207). In words: Competitive [3H]folic acid binding to FRβ in D4 CHO cells. The settings on record: 50 nM [3H]folic acid, 15 min, 0 °C.
The next assay has as its target FRα (Homo sapiens, UniProt P15328). Nature of the assay: Competitive [3H]folic acid binding to FRα in RT16 CHO cells. To be noted: 50 nM [3H]folic acid, 15 min, 0 °C.
The subject of assay [3] is D4 CHO cells expressing human FRβ. To be noted: for IC50: Homo sapiens, CHO, read-out: IC50 growth inhibition, FRβ, D4; for IC50 growth inhibition, FRβ, D4: without folic acid, mean (SE).
The subject of assay [4] is KB human tumor cells (RFC/FRα/PCFT). In words: Growth inhibition of KB human tumor cells, with and without 200 nM folic acid. To be noted: without folic acid; mean (SE).
Assay [5] deals with RT16 CHO cells expressing human FRα.
The target of a further assay is T1, PCFT (Homo sapiens, UniProt Q96NT5).
T1 sequence (Q96NT5 1-459): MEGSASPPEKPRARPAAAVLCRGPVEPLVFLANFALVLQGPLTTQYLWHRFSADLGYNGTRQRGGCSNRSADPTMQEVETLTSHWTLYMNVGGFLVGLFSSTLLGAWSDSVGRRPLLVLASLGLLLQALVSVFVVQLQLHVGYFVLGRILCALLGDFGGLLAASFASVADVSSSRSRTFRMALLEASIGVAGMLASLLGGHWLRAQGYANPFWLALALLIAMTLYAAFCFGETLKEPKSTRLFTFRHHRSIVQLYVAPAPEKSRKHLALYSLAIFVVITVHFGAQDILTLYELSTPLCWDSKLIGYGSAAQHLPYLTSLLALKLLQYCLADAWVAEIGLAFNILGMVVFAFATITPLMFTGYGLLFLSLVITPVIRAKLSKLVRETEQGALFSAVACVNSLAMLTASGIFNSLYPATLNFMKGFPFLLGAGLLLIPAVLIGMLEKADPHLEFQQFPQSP
In words: Competitive inhibition of [3H]MTX uptake by PCFT in R2/PCFT4 cells. Format: cell-based.

SMILES strings stand for the structures.

Sequence of FRα (P15328 25-257): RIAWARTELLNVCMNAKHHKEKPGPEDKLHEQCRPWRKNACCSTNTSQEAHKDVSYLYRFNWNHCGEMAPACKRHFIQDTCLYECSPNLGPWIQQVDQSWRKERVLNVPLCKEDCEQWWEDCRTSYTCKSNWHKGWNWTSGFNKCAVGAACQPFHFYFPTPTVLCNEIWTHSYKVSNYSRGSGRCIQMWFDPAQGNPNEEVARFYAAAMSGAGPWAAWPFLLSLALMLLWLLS
Sequence of FRβ (P14207 17-255): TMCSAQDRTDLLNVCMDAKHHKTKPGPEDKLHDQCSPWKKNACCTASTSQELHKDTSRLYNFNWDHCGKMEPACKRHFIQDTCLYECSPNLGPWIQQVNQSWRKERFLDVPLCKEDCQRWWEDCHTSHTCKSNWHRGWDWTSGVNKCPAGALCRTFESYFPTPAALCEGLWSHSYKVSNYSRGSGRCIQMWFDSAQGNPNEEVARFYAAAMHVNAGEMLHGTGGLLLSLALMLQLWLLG

In the case of `Nc1nc2[nH]c(CCCCc3ccc(C(=O)N[C@@H](CCC(=O)O)C(=O)O)cc3)cc2c(=O)[nH]1` [Compound 1, reference compound], the “IC50 growth inhibition, RFC, PC43–10” value in assay [1] is listed as “no activity”.
With `Nc1nc2[nH]c(CCCCc3ccc(C(=O)N[C@@H](CCC(=O)O)C(=O)O)nc3)cc2c(=O)[nH]1` [Compound 6, (5-(4-(2-Amino-4-oxo-4,7-dihydro-3H-pyrrolo[2,3-d]pyrimidin-6-yl)butyl)picolinoyl)-L-glutamic Acid], in assay [2], the “Antitumor activity toward NCI-IGROV1 tumors in vivo (in words)” value is listed as “excellent activity”. In addition, in assay [2] (mice on standard folate-replete diet), the “Antitumor activity, standard (high folate) diet” value is listed as “abolished”. For the same compound, in assay [1], the “IC50 growth inhibition, RFC, PC43–10” value is “no activity”.
As usually defined, the IC50 is the concentration that gives 50% inhibition. Turning to `Nc1nc2[nH]c(CCCCc3cccc(C(=O)N[C@@H](CCC(=O)O)C(=O)O)n3)cc2c(=O)[nH]1` [Compound 7, (6-(4-(2-Amino-4-oxo-4,7-dihydro-3H-pyrrolo[2,3-d]pyrimidin-6-yl)butyl)picolinoyl)-L-glutamic Acid], at FRβ, the “Relative binding affinity to FRβ (vs folic acid)” value was “sharply reduced”. Besides, the “Relative binding affinity to FRα (vs folic acid)” value at FRα was “sharply reduced”. Further, in assay [3], the IC50 is > 1000 nM and the “IC50 growth inhibition, FRβ, D4” value was “inactive”.
With `Nc1nc2[nH]c(CCC#Cc3ccc(C(=O)N[C@@H](CCC(=O)O)C(=O)O)nc3)cc2c(=O)[nH]1` [Compound 9, (5-(4-(2-Amino-4-oxo-4,7-dihydro-3H-pyrrolo[2,3-d]pyrimidin-6-yl)but-1-yn-1-yl)picolinoyl)-L-glutamic Acid], the “IC50 growth inhibition, RFC/FRα/PCFT, KB” value in assay [4] was “inactive”. Further, the “Fold less active than 6, FRα-expressing CHO cells” value in assay [5] is listed as ~ 4 fold.
`Nc1nc2[nH]c(CCC#Cc3cccc(C(=O)N[C@@H](CCC(=O)O)C(=O)O)n3)cc2c(=O)[nH]1` [Compound 10, (6-(4-(2-Amino-4-oxo-4,7-dihydro-3H-pyrrolo[2,3-d]pyrimidin-6-yl)but-1-yn-1-yl)picolinoyl)-L-glutamic Acid]: the IC50 in assay [3] is > 1000 nM; in assay [5] (Homo sapiens, RT16, read-out: IC50 growth inhibition, FRα, RT16), > 1000 nM. Further, the “IC50 growth inhibition, FRβ, D4” value in assay [3] is “inactive”. Also, in assay [5] (without folic acid, mean (SE)), the “IC50 growth inhibition, FRα, RT16” value was “no activity”.
Usually inhibition stands for the percentage by which the read-out fell short of the control. Regarding `Nc1nc2[nH]cc(CCc3ccc(C(=O)N[C@@H](CCC(=O)O)C(=O)O)cc3)c2c(=O)[nH]1` [PMX, N-{4-[2-(2-amino-3,4-dihydro-4-oxo-7H-pyrrolo-[2,3-d]pyrimidin-5-yl)ethyl]benzoyl}-L-glutamic acid, reference compound], the inhibition at 10 µM on PCFT (R2/PCFT4, pH 5.5, read-out: Inhibition of [3H]MTX transport by PCFT) is ≥ 90%. In addition, the “Antitumor activity toward NCI-IGROV1 tumors in vivo (in words)” value in assay [2] is “inactive”.
Regarding `CN(Cc1cnc2nc(N)nc(N)c2n1)c1ccc(C(=O)N[C@@H](CCCNC(=O)c2ccccc2C(=O)O)C(=O)O)cc1` [PT523, Nα-(4-amino-4-deoxypteroyl)-Nδ-hemiphthaloyl-L-ornithine], the “Effect on [3H]MTX uptake by PCFT” value on PCFT (pH 5.5 and pH 6.8, 1 or 10 μM) is recorded as “no effect”.
